What was measured:
C. asparagiforme = assay: RNA-seq after MTX treatment, with time course; assay type: cell-based, Clostridium asparagiforme; details: MTX 100 μg/ml
Method: Genomes were obtained from NCBI's GenBank Assembly database. Culture media was composed of BHI+and allowed to equilibrate in an anaerobic environment prior to use. Briefly, bacteria were cultured in BHI+at 37° C. in an anaerobic chamber. Cultures for each isolate were grown to mid-exponential (achieving an OD600˜0.5), aliquoted into triplicates, treated for 30 minutes with either DMSO or MTX 100 μg/ml, and then removed from the anaerobic chamber. The mid-exponential time point was selected to facilitate comparisons across isolates, as has been done by others (O'Rourke, A., et al. (2020), Antimicrob Agents Chemother 64), since lag and stationary phases would present challenges in term of biomass (lag phase with low biomass) and differing physiology (i.e., sporulation among some isolates and not others). For C. asparagiforme, cultures were incubated for 4 and 20 hours as well and profiled. Cultures were centrifuged at 2000 rpm for 10 minutes at 4° C. to facilitate removal of supernatant, and the remaining bacterial pellet was flash-frozen in liquid nitrogen.
Each bacterial pellet was incubated with 1 ml of Tri reagent (Sigma Aldrich, catalog #: T9424) at room temperature for 10 minutes. The cell suspension was transferred into Lysing Matrix E tubes (MP Biomedicals, 116914050), and homogenized in a bead-beater (Mini-Beadbeater-24, BioSpec) for 5 minutes at room temperature. The sample was incubated with 200 μL of chloroform at room temperature for 10 minutes, followed by centrifugation at 16,000×g for 15 minutes at 4° C. Next, 500 μL of the upper aqueous phase was transferred into a new tube and 500 μL of 100% ethanol was added. To isolate RNA, PureLink RNA Mini Kit (Life Technologies, catalog #: 12183025) was used. This mixture was transferred onto a PureLink spin column and spun at >12,000×g for 30 seconds. The column was washed with 350 μl of wash buffer I as described in the PureLink manual. The column was incubated with 80 μl of PureLink DNase (Life Technologies, catalog #: 12185010) at room temperature for 15 minutes, and washed with 350 μl of wash buffer I. The column was washed with wash buffer II twice as described in the PureLink manual. Total RNA was recovered in 50 μl of RNAase-free water. A second round of off-column DNAse treatment was undertaken. The RNA was incubated with 6 μl of TURBO DNAse (Ambion, ThermoFisher, catalog #: AM2238) at 37° C. for 30 minutes. To stop the reaction, 56 μl of lysis buffer from the PureLink kit and 56 μl of 100% ethanol was added to the sample and vortexed. This suspension was transferred onto a PureLink column and washed once with 350 μl of wash buffer I and twice with 500 μl of wash buffer II. The RNA was recovered in 30 μl of RNAse-free water.
Total RNA was subjected to rRNA depletion using Ribo-Zero Bacterial rRNA Depletion (Illumina, catalog #: MRZB12424), following the manufacturer's protocol. […] For each sample, fastq files are available in NCBI's Sequence Read Archive (SRA), accession number PRJNA656577.
Reads were trimmed using Trimmomatic (v0.32) (Bolger, A. M., et al., (2014), Bioinformatics 30, 2114-2120), and ribosomal reads were removed using SortMeRNA (v2.1) (Kopylova, E., et al., (2012), Bioinformatics 28, 3211-3217). Reads were mapped to reference genomes using Bowtie2 (Langmead, B., and Salzberg, S. L. (2012), Nat Methods 9, 357-359) using the following options: -q, —met file, —end-to-end, —sensitive. […]

[1] = Targeted LC-MS for MTX in RA donor stool samples used for fecal transplant; design: species or system human; details: limit of quantification 100 nM

With CN(Cc1cnc2nc(N)nc(N)c2n1)c1ccc(C(=O)N[C@@H](CCC(=O)O)C(=O)O)cc1 [MTX, methotrexate] the “number of pathways enriched” value (C. asparagiforme) was 23 pathways, the “number of differentially expressed genes” value (C. asparagiforme; 30 minutes, padj<0.2, DESeq) was 468 genes and the “number of transcripts differentially expressed at all three timepoints” value (C. asparagiforme; 30 minutes, 4 and 20 hours, padj<0.2, DESeq) was 41. The “DHFR or AICAR transformylase expression” value (C. asparagiforme; time course) was “no significant differences”, the “adenylosuccinate synthase (ADSS) expression” value (C. asparagiforme; time course) was “significantly upregulated” and the “MTX in pre-MTX and post-MTX stool samples from RA donors” value [1] was “not detected”.

— patent US20220160712A1, “METHODS OF TREATING RHEUMATOID ARTHRITIS AND FOR PREDICTING THE RESPONSE TO METHOTREXATE” (CHAN ZUCKERBERG BIOHUB, INC., priority 2020, published 2022)
